Values quoted from earlier work in patent US8906391B2, “Thermorod for active drug release and method for manufacturing the same” (Korea Sangsa Co., Ltd., priority 2008, dated 2014).

Details: characteristics of the drugs, Table 1

Hydrophobicity (Log P) | Compound
0.917 | CC(=O)Nc1ccc(O)cc1 [Acetaminophen]
4.258 | CC(=O)O[C@@]12CO[C@@H]1C[C@H](O)[C@@]1(C)C(=O)[C@H](O)C3=C(C)[C@@H](OC(=O)[C@H](O)[C@@H](NC(=O)OC(C)(C)C)c4ccccc4)C[C@@](O)([C@@H](OC(=O)c4ccccc4)[C@H]21)C3(C)C [Docetaxel]
3.06 | CC[C@H]1OC(=O)[C@H](C)[C@@H](O[C@H]2C[C@@](C)(OC)[C@@H](O)[C@H](C)O2)[C@H](C)[C@@H](O[C@@H]2O[C@H](C)C[C@H](N(C)C)[C@H]2O)[C@](C)(O)C[C@@H](C)C(=O)[C@H](C)[C@@H](O)[C@]1(C)O [Erythromycin]
5.029 | CC(=O)O[C@H]1C(=O)[C@@]2(C)[C@H]([C@H](OC(=O)c3ccccc3)[C@]3(O)C[C@H](OC(=O)[C@H](O)[C@@H](NC(=O)c4ccccc4)c4ccccc4)C(C)=C1C3(C)C)[C@]1(OC(C)=O)CO[C@@H]1C[C@@H]2O [Paclitaxel]
